On the set-up of data set [1]: species or system SD rats. As to conditions: rat, in vivo, po, 88 mg. The protocol: The microcapsules were orally administered to 7 week-old male SD rats (Sprague Dawley, Samtako, 4 rats per one group, 7 days feeding ad libitum) by using Sonde. Blood samples were taken from the rats in a predetermined time interval, and the respective pharmacokinetic profiles were evaluated.

A further data set in a line: physchem. The conditions noted are these: water, thermodynamic from solid. How it is done: Each of distilled water and artificial intestinal juice (pH 6.8; USP) was added thereto to fill 100 mL, and the mixture was vigorously blended for 1 hr and passed through a 0.45 μm filter, followed by HPLC analysis.
For data set [2] the following is noted: fenofibric acid in plasma; cited from earlier work.

The values below come from patent publication US20130022684A1 (HANMI SCIENCE CO., LTD., priority 2010, published 2013).

Converted amounts (≈) assume the structure as drawn. Where two headings read alike, the source gives them in different places.

Usually Cmax stands for the highest concentration seen after dosing. For orientation: solubility means how much of the substance goes into solution per volume. Read a high solubility as much dissolved substance. As for `CC(C)(Oc1ccc(C(=O)c2ccc(Cl)cc2)cc1)C(=O)O` [Fenofibric acid, 2-[4-(4-chlorobenzoyl)phenoxy]-2-methyl-propanoic acid], in data set [1] (male, Sprague-Dawley), the “AUC 0-24” value turned out to be 2742.2 ± 218.1 µg·h/mL and the Cmax was found to be 209.3 ± 26.1 µg/mL. This compound also showed a solubility at 1 hr in the data set “physchem” of 165 µg/mL (≈ 518 µM). Moreover, in data set [2], the “half-life of elimination in plasma” value is given as “about 20 hours” and the “time of peak plasma levels after administration” value is reported as “about 5 hours”.

On to `CC(C)(Oc1ccc(C(=O)c2ccc(Cl)cc2)cc1)C(=O)[O-].C[N+](C)(C)CCO` [Choline fenofibrate], for which, in data set [1], the “AUC 0-24” value worked out at 3477.7 ± 558.9 µg·h/mL and the Cmax was 309.4 ± 62.2 µg/mL.

As for `CC(C)OC(=O)C(C)(C)Oc1ccc(C(=O)c2ccc(Cl)cc2)cc1` [Fenofibrate], in data set [1] (male, Sprague-Dawley), the “AUC 0-24” value was found to be 2078.3 ± 610.5 µg·h/mL and the Cmax amounted to 137.2 ± 37.9 µg/mL.
